# Results as given in ChEMBL document CHEMBL1833830, “1-[2-(2-Benzoyl- and 2-benzylphenoxy)ethyl]uracils as potent anti-HIV-1 agents” (Bioorg Med Chem, 2011).
# Calls of active or inactive are those of the source. The calls are words filed in the database; no cut-off is given here.
# How the values were obtained:
# [1] = tested on: Vesicular stomatitis virus; experiment: Antiviral activity against Vesicular stomatitis virus assessed as inhibition of viral replication; type: functional, organism-based
# Rift Valley fever virus = experiment: Antiviral activity against Rift Valley fever virus assessed as inhibition of viral replication; type: functional, organism-based
# in vitro [2] = details: human, MT4 cells
# West Nile virus = experiment: Antiviral activity against West Nile virus assessed as inhibition of viral replication; type: functional, organism-based
# in vitro [3] = details: human, MT4 cells; remark: listed apart in the source
# [4] = tested on: Human immunodeficiency virus 2; experiment: Antiviral activity against Human immunodeficiency virus type 2 ROD infected in human CEM cells assessed as inhibition of virus-induced giant cell formation after 4 days by microscopic analysis; type: functional, organism-based; details: ISOLATE ROD, CCRF-CEM
# Coxsackievirus B4 = experiment: Antiviral activity against Coxsackievirus B4 assessed as inhibition of viral replication; type: functional, organism-based
# Sindbis virus = experiment: Antiviral activity against Sindbis virus assessed as inhibition of viral replication; type: functional, organism-based
# [5] = tested on: Human immunodeficiency virus 1; type: functional, organism-based; details: Human immunodeficiency virus 1, 3B, MT4, 96 h
# Yellow fever virus = experiment: Antiviral activity against Yellow fever virus assessed as inhibition of viral replication; type: functional, organism-based
# Feline coronavirus = experiment: Antiviral activity against Feline coronavirus assessed as inhibition of viral replication; type: functional, organism-based
# [6] = tested on: Human immunodeficiency virus 1; experiment: microbe, parasite or virus in culture; details: Human immunodeficiency virus 1, 3B, MT4, 96 h
# [7] = target: Human immunodeficiency virus type 1 reverse transcriptase (Human immunodeficiency virus 1, UniProt Q72547); experiment: Inhibition of RNA-dependent DNA polymerase activity of HIV1 reverse transcriptase p66/p51 heterodimer using [8-3H]dGTP as substrate after 30 mins by liquid scintillation counting
# [8] = Cytotoxicity against human MT4 cells after 4 days by MTT assay; type: cell-based
# [9] = Inhibition of DNA-dependent DNA polymerase activity of HIV1 reverse transcriptase p66/p66 homodimer using activated DNA and [alpha-32P]dATP after 30 mins by liquid scintillation counting; parameters: species or system Human immunodeficiency virus 1
# Human respirovirus 3 = experiment: Antiviral activity against Parainfluenza 3 virus assessed as inhibition of viral replication; type: functional, organism-based
# Punta Toro virus = experiment: Antiviral activity against Punta Toro virus assessed as inhibition of viral replication; type: functional, organism-based
# Vaccinia virus = experiment: Antiviral activity against Vaccinia virus assessed as inhibition of viral replication; type: functional, organism-based; details: Orthopoxvirus vaccinia
# [10] = tested on: Human immunodeficiency virus 2; experiment: Antiviral activity against Human immunodeficiency virus type 2 ROD infected in human MT4 cells assessed as inhibition of virus-induced cytopathic effect after 4 days by MTT assay; type: functional, organism-based; details: ISOLATE ROD
# Human alphaherpesvirus 1 = experiment: Antiviral activity against HSV1 assessed as inhibition of viral replication; type: functional, organism-based
# [11] = tested on: Respiratory syncytial virus; experiment: Antiviral activity against Respiratory syncytial virus assessed as inhibition of viral replication; type: functional, organism-based
# Human alphaherpesvirus 2 = experiment: Antiviral activity against HSV-2 assessed as inhibition of viral replication; type: functional, organism-based
# [12] = tested on: Mammalian orthoreovirus 1; experiment: Antiviral activity against Reovirus 1 assessed as inhibition of viral replication; type: functional, organism-based
# Dengue virus = experiment: Antiviral activity against Dengue virus assessed as inhibition of viral replication; type: functional, organism-based
# [13] = Solubility of the compound in 0.1% DMSO after overnight incubation by UV spectrometric analysis; type: physicochemical
# [14] = Solubility of the compound in 10% DMSO after overnight incubation by UV spectrometric analysis; type: physicochemical
SMILES,Activity [1],Activity (Rift Valley fever virus),selectivity ratio (in vitro [2]),Activity (West Nile virus),selectivity ratio (in vitro [3]),Activity [4],Activity (Coxsackievirus B4),Activity (Sindbis virus),EC50 [5] [µM],Activity (Yellow fever virus),Activity (Feline coronavirus),EC50 [6] [µM],Ki [7] [µM],CC50 at 96 h [8] [µM],Ki [9] [µM],Activity (Human respirovirus 3),Activity (Punta Toro virus),Activity (Vaccinia virus),Activity [10],Activity (Human alphaherpesvirus 1),further results
O=C(c1ccccc1)c1cc(Cl)ccc1OCCn1ccc(=O)[nH]c1=O,inactive,inactive,> 3790,inactive,1,inactive,inactive,inactive,> 337,inactive,inactive,0.089,0.65,> 337,0.98,inactive,inactive,inactive,inactive,inactive,Activity [11]: inactive; Activity (Human alphaherpesvirus 2): inactive; Activity [12]: inactive; Activity (Dengue virus): inactive
Cc1cc(C)cc(C(=O)c2cc(Cl)ccc2OCCn2cc(C)c(=O)[nH]c2=O)c1,inactive,inactive,> 6880,inactive,> 74,inactive,inactive,inactive,4.09,inactive,inactive,0.044,1.1,> 303,1.2,inactive,inactive,inactive,inactive,inactive,Activity [11]: inactive; Activity (Human alphaherpesvirus 2): inactive; Activity [12]: inactive; Activity (Dengue virus): inactive
O=C(c1cc(F)cc(F)c1)c1cc(Cl)ccc1OCCn1ccc(=O)[nH]c1=O,inactive,inactive,> 11400,inactive,1,inactive,inactive,inactive,> 307,inactive,inactive,0.027,0.36,> 307,0.77,inactive,inactive,inactive,inactive,inactive,solubility [13]: 7.3 µM; Activity [11]: inactive; Activity (Human alphaherpesvirus 2): inactive; Activity [12]: inactive; Activity (Dengue virus): inactive; solubility [14]: 17.6 µM
O=C(c1ccccc1)c1cc(Br)ccc1OCCn1ccc(=O)[nH]c1=O,inactive,inactive,> 4630,inactive,1,inactive,inactive,inactive,> 301,inactive,inactive,0.065,0.45,> 301,2,inactive,inactive,inactive,inactive,inactive,Activity [11]: inactive; Activity (Human alphaherpesvirus 2): inactive; Activity [12]: inactive; Activity (Dengue virus): inactive
Cc1ccc(OCCn2ccc(=O)[nH]c2=O)c(C(=O)c2ccccc2)c1,inactive,inactive,> 1140,inactive,1,inactive,inactive,inactive,> 357,inactive,inactive,0.31,1.7,> 357,5.6,inactive,inactive,inactive,inactive,inactive,Activity [11]: inactive; Activity (Human alphaherpesvirus 2): inactive; Activity [12]: inactive; Activity (Dengue virus): inactive
Cc1cc(C)cc(C(=O)c2cc(Br)ccc2OCCn2ccc(=O)[nH]c2=O)c1,inactive,inactive,> 12300,inactive,1,inactive,inactive,inactive,> 282,inactive,inactive,0.023,1.7,> 282,0.77,inactive,inactive,inactive,inactive,inactive,solubility [13]: 1.8 µM; Activity [11]: inactive; Activity (Human alphaherpesvirus 2): inactive; Activity [12]: inactive; Activity (Dengue virus): inactive; solubility [14]: 6.6 µM
O=C(c1cc(Br)cc(Br)c1)c1cc(Cl)ccc1OCCn1ccc(=O)[nH]c1=O,inactive,inactive,> 7390,inactive,1,inactive,inactive,inactive,> 237,inactive,inactive,0.032,0.47,> 236,2.3,inactive,inactive,inactive,inactive,inactive,Activity [11]: inactive; Activity (Human alphaherpesvirus 2): inactive; Activity [12]: inactive; Activity (Dengue virus): inactive
O=C(c1ccccc1)c1cc(F)ccc1OCCn1ccc(=O)[nH]c1=O,inactive,inactive,> 694,inactive,> 2,inactive,inactive,inactive,171,inactive,inactive,0.51,2.6,> 353,2.9,inactive,inactive,inactive,inactive,inactive,Activity [11]: inactive; Activity (Human alphaherpesvirus 2): inactive; Activity [12]: inactive; Activity (Dengue virus): inactive
Cc1cc(C)cc(C(=O)c2cc(Cl)ccc2OCCn2c(C)cc(=O)[nH]c2=O)c1,inactive,inactive,> 15100,inactive,> 74,inactive,inactive,inactive,4.09,inactive,inactive,0.02,1.7,> 303,0.73,inactive,inactive,inactive,inactive,inactive,Activity [11]: inactive; Activity (Human alphaherpesvirus 2): inactive; Activity [12]: inactive; Activity (Dengue virus): inactive
Cc1cccc(C(=O)c2cc(Cl)ccc2OCCn2ccc(=O)[nH]c2=O)c1,inactive,inactive,> 6250,inactive,> 6,inactive,inactive,inactive,52,inactive,inactive,0.052,0.21,> 325,0.49,inactive,inactive,inactive,inactive,inactive,Activity [11]: inactive; Activity (Human alphaherpesvirus 2): inactive; Activity [12]: inactive; Activity (Dengue virus): inactive
